Where two headings read alike, the source gives them in different places.
What was measured:
[1] = In vivo quinacrine dosage determination in shrimp (mortality); parameters: species or system Litopenaeus vannamei; details: injected 0.5, 2.5 or 5 μg/g body weight, 20 shrimp per group, 2 weeks
Description: To determine the optimal QC dosage for the challenge experiment, four groups of shrimp (20 shrimp per group) were injected with different doses ([…], 2.5 μg/g, or 5 μg/g body weight) of QC (10 mg/mL stock solution in PBS) or with PBS (negative control). The mortality of each group was observed and recorded every 12 h.
(§1) For the WSSV challenge experiment, groups of shrimp (14 shrimp per group) were injected either with WSSV (50 μl of 100× dilution of the virus stock) or with PBS as a negative control. These first injections were then immediately followed by a second injection of 50 μl of either QC (5 μg/g) or PBS. Pleopods were excised from 3 randomly selected shrimp from each group at 0, 1, 2, 6 and 9 days post-injection (dpi) and tested for WSSV infection as described below. A second replicate of this entire experiment was performed at the same time. No pleopods were collected from the shrimp in this second replicate. Instead, mortality was observed and recorded every 12 h.

[2] = test system: icp35 IRES; details: Sf9 cells, 48 h, relative to untreated
[3] = test system: WSSV; assay: In vivo quinacrine assay and WSSV challenge experiment in shrimp; parameters: species or system Litopenaeus vannamei
Description: as §1
A commercial WSSV diagnostic kit (IQ2000 WSSV Detection and Prevention System, GeneReach Biotechnology Corp.) was used to determine WSSV infection levels. Briefly, genomic DNA extracted from the shrimp pleopod samples was isolated using the DTAB/CTAB extraction procedure according to the manufacturer's instructions. Next, competitive nested PCR analysis was performed using the extracted DNA samples. The PCR products were analyzed by electrophoresis with a 2% agarose gel. WSSV infection levels were determined according to the pattern of bands indicated in the kit's instructions.

[4] = test system: cellular p53 IRES; details: cited from earlier work
[5] = test system: Encephalomyocarditis Virus (EMCV) IRES; details: dose-dependent; cited from earlier work
[6] = test system: hepatitis C virus (HCV) IRES; details: dose-dependent; cited from earlier work
[7] = test system: poliovirus IRES; details: dose-dependent; cited from earlier work
[8] = test system: icp35 IRES; assay: IRES activity under tunicamycin-induced ER stress, dual luciferase assay in Sf9 cells; format: cell-based, White spot syndrome virus; details: tunicamycin 2.5 μg/ml added 24 h post-transfection, 15 h of treatment
Description: After 15 h of treatment, cells were harvested. One replicate of the harvested cells was subjected to a dual luciferase assay as described above. The other replicate was subjected to Western blotting to monitor the level of the phosphorylated proteins. For this assay, 2× sample buffer was added to the cells and the mixture was boiled for 10 minutes. An aliquot (15 μl) was separated on 15% SDS-PAGE and transferred onto the PVDF membrane as described above. The blots were then blocked with 5% BSA in TBST (0.01% of Tween 20 in TBS buffer) for 1 h at RT, and probed with the commercial primary antibodies Phospho-eIF2α (Ser51) (Cell Signaling) or EIF2S1 (Abeam). The antibodies were diluted 1:1,000 in 2.5% non-fat milk in TBST and applied for 16 h at 4° C. This step was followed by washing three times for 10 min at RT with TBST. The blots were then probed with anti-Rabbit or anti-Mouse IgG secondary antibody (Santa Cruz Biotechnology) diluted 1:10,000 in 2.5% BSA in TBST for 1 hr at RT, and washed three times for 10 min at RT with TBST. Western Lightning® Plus-ECL reagents were used for visualization as described above.

## CCN(CC)CCCC(C)Nc1c2ccc(Cl)cc2nc2ccc(OC)cc12 (stereo not drawn) [QC, quinacrine dihydrochioride]
[1]
  survival of unchallenged shrimp: All but one of the shrimp (in the 0.5 μg/g group) survived
[2]; QC 25 μM
  FL value (IRES-mediated firefly luciferase activity): significantly reduced
  FL/RL ratio: significantly reduced
[2]; QC 30 μM
  FL value (IRES-mediated firefly luciferase activity): significantly reduced
  FL/RL ratio: significantly reduced
[2]; […], QC 25 μM or 30 μM
  RL value (cap-dependent Renilla luciferase activity): no significant effect
[3]; QC 5 μg/g injected immediately after WSSV inoculum, vs WSSV+PBS
  mortality rate after WSSV challenge: significantly reduced
[3]; WSSV+QC group, QC 5 μg/g, 9 dpi
  shrimp still alive: over 70%
[3]; WSSV+QC sample collection group, 1, 2, 6 and 9 dpi
  WSSV infection level in surviving shrimp (IQ2000 nested competitive PCR): tested negative or had only a light infection
[4]
  sensitivity of IRES to QC: not sensitive
[5]
  IRES activity: inhibited
[6]
  IRES activity: inhibited
[7]
  IRES activity: inhibited

## tunicamycin
[8]
  cap-dependent translation (RL activity): inhibited
  icp35 IRES-dependent translation (FL activity): inhibited

— patent US20150225739A1 (priority 2014, published 2015)
